Measurements from US9493836B2, “Method for diagnosing hematological disorders” (UNIVERSITE FRANCOIS RABELAIS DE TOURS, priority 2010, dated 2016).
Entries after “also recorded” stand apart in the source; their conditions may differ.

Columns and labels:
[1] = system: AML sample; assay: In vitro treatment of an AML sample with a demethylating agent; expression level of genes SEQ ID NO: 1-24 by qRT-PCR (oxydogram); type: cell-based, human; conditions: AML sample of one patient treated in vitro, compared with same untreated AML sample (FIG. 8)
Text: Three micrograms of total RNA from each sample were reverse transcribed using the SuperScript® VILO™ cDNA Synthesis kit (Invitrogen) according to the protocol of the supplier. The relative quantification of gene expression was done by real-time PCR on the LightCycler® 480 microwell plate-based cycler platform (Roche Applied Science) using Universal ProbeLibrary assays designed with the ProbeFinder software (Roche Applied Science, www.roche-applied-science.com/sis/rtper/upl/ezhome.html). Primers were purchased from Invitrogen and Universal ProbeLibrary probes from Roche Applied Science. The nucleotide sequences of the primers and probes of each target are shown in Table A. All targets were concomitantly analyzed. qRT-PCR reactions were carried out in a total volume of 10 μL on 20 ng of cDNA using LightCycler® 480 Probes Master (Roche Applied Science). The LightCycler® 480 was programmed to an initial denaturation (95° C., 10 min) following by 45 cycles of 10 sec at 95° C., 30 sec at 60° C., 1 sec at 72° C. and a final cooling step at 40° C. for 10 sec. All reactions were run in triplicate, and average values were used for quantification. Results were analyzed by the relative quantification method (ΔΔCT=ΔCTpatient−ΔCTreference) using the Cycle threshold (CT) values determined with the LightCycler® 480 software (release 1.5.0) from Roche Applied Science. […]

[2] = system: AML and high grade MDS; conditions: background statement; cited from earlier work

SMILES: Nc1ncn([C@@H]2O[C@H](CO)[C@@H](O)[C@H]2O)c(=O)n1 [azacytidine, 5-azacytidine]
- modulation of the expression level (ratio) of the genes SEQ ID NO: 1-24 [1]: can modulate the expression ratio of the genes SEQ ID NO: 1-24; also recorded: modify the expression level of the genes
- share of AML and high grade MDS sensitive to the agents' effects [2]: about 30%

SMILES: Nc1ncn([C@H]2C[C@H](O)[C@@H](CO)O2)c(=O)n1 [decitabine, 5-azadeoxycytidine]
- share of AML and high grade MDS sensitive to the agents' effects [2]: about 30%
